Like-named read-outs stand apart in the source and are kept apart here. Numbered stars: 1 amine (or outer) side, 2 acyl side, 3 side chain; on linkers, the order of the positions; unused ones are H or OH. Square brackets hold non-standard residues; d marks the D form. Side chains are listed from the residue outwards. Peptide text beside a SMILES is read from it. * marks the point of attachment. γGlu = O=C(O)[C@H](CCC(=O)[*:2])N[*:1]; X2 = O=C(CSCC(=O)*)NCCN1C(=O)CSC1=O; Palmitoyl = CCCCCCCCCCCCCCCC(=O)*; Aib = CC(C)(N)C(=O)O
What was measured:
GIP-R = target: T1, GIP-R (Homo sapiens, UniProt P48546); assay: HitHunter cAMP assay (GIP-R); assay type: cell-based; conditions: cAMP; for Emax: read-out: (Emax) GIP-R
T1 sequence (P48546 22-466): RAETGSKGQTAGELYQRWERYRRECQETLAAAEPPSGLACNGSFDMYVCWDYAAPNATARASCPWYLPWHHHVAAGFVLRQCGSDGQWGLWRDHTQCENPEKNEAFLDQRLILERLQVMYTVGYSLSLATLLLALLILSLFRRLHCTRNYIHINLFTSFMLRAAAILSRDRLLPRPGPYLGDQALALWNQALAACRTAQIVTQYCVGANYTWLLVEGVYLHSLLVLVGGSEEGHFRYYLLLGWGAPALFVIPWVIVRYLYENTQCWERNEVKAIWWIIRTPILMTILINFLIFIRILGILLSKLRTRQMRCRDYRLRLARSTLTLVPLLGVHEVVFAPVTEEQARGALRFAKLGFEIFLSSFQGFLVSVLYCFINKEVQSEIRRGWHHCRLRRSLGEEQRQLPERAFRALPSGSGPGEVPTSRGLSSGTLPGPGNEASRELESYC
In short: (§1)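 cAMP accumulation read by luminescent HitHunter immunocompetition after 30 min room-temperature agonist stimulation. Agonists tested as 22-point twofold dilutions, in duplicate, on 10,000 cells/well in HBSS containing 625 μM IBMX, 10 mM HEPES and 0.2% BSA.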

GLP-1R = GLP-1R (Homo sapiens, UniProt P43220); assay: HitHunter cAMP assay (GLP-1R); assay type: cell-based; conditions: cAMP; for Emax: read-out: (Emax) GLP-1R
Sequence of GLP-1R (P43220 24-463): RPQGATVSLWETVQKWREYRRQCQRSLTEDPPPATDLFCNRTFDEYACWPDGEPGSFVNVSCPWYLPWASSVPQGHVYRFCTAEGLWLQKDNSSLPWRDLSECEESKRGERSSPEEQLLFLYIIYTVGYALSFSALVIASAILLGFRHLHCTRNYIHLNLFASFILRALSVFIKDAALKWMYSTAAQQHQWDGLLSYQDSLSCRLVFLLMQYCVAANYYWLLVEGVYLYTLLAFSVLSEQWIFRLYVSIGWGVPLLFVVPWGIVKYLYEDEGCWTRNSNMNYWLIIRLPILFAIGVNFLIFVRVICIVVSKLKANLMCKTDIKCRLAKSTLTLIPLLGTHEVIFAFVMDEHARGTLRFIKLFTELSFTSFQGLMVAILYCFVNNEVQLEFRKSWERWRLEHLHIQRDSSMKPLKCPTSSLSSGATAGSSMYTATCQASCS
In short: as §1

[1] = Table 3, read-out: EC50 GIP-R/nM
[2] = Table 3A, read-out: EC50 GIP-R/nM
[3] = Table 3, read-out: EC50 GLP-1R/nM
[4] = Table 3A, read-out: EC50 GLP-1R/nM

Row | Structure (SMILES) | Emax (GIP-R; Table 3) | EC50 (GIP-R; [1]) | Emax (GIP-R; Table 3A) | EC50 (GIP-R; [2]) | Emax (GLP-1R; Table 3) | EC50 (GLP-1R; [3]) | Emax (GLP-1R; Table 3A) | EC50 (GLP-1R; [4]) | EC50 (GIP-R; EC50 GIP-R/nM, Table 3) | EC50 (GIP-R; EC50 GIP-R/nM, Table 3A) | EC50 (GLP-1R; EC50 GLP-1R/nM, Table 3) | EC50 (GLP-1R; EC50 GLP-1R/nM, Table 3A)
1 | CCCCCCCCCCCCCCCC(=O)N[C@@H](CCC(=O)NCCCC[C@H](NC(=O)[C@H](CO)NC(=O)[C@@H]1CCCN1C(=O)[C@@H]1CCCN1C(=O)[C@@H]1CCCN1C(=O)[C@H](C)NC(=O)CNC(=O)[C@H](CO)NC(=O)[C@H](CO)NC(=O)[C@@H]1CCCN1C(=O)CNC(=O)CNC(=O)[C@H](C)NC(=O)[C@H](CC(C)C)NC(=O)[C@H](CC(C)C)NC(=O)[C@H](Cc1c[nH]c2ccccc12)NC(=O)[C@H](CC(N)=O)NC(=O)[C@@H](NC(=O)[C@H](Cc1ccccc1)NC(=O)[C@H](CCC(=O)O)NC(=O)C(C)(C)NC(=O)[C@H](C)NC(=O)[C@H](C)NC(=O)[C@H](CCC(N)=O)NC(=O)[C@H](CCCCN)NC(=O)[C@H](CC(=O)O)NC(=O)[C@H](CC(C)C)NC(=O)[C@H](Cc1ccc(O)cc1)NC(=O)[C@@H](NC(=O)[C@H](CO)NC(=O)[C@H](Cc1ccc(O)cc1)NC(=O)[C@H](CC(=O)O)NC(=O)[C@H](CO)NC(=O)[C@@H](NC(=O)[C@H](Cc1ccccc1)NC(=O)[C@@H](NC(=O)CNC(=O)[C@H](CCC(=O)O)NC(=O)CSCC(=O)NCCN1NCCC1=O)[C@@H](C)O)[C@@H](C)O)[C@@H](C)CC)C(C)C)C(N)=O)C(=O)O [Compound 58] | 26% | 1 to 10 nM | 26% | 10 to 100 nM | 108% | 0.1 to 1 nM | 108% | 0.1 to 1 nM |  |  |  | 
2 | CCCCCCCCCCCCCCCC(=O)N[C@@H](CCC(=O)NCCCC[C@H](NC(=O)[C@H](CO)NC(=O)[C@@H]1CCCN1C(=O)[C@@H]1CCCN1C(=O)[C@@H]1CCCN1C(=O)[C@H](C)NC(=O)CNC(=O)[C@H](CO)NC(=O)[C@H](CO)NC(=O)[C@@H]1CCCN1C(=O)CNC(=O)CNC(=O)[C@H](C)NC(=O)[C@H](CC(C)C)NC(=O)[C@H](CC(C)C)NC(=O)[C@H](Cc1c[nH]c2ccccc12)NC(=O)[C@H](CC(N)=O)NC(=O)[C@@H](NC(=O)[C@H](Cc1ccccc1)NC(=O)[C@H](CCC(=O)O)NC(=O)C(C)(C)NC(=O)[C@H](C)NC(=O)[C@H](C)NC(=O)[C@H](CCC(N)=O)NC(=O)[C@H](CCCCN)NC(=O)[C@H](CC(=O)O)NC(=O)[C@](C)(CC(C)C)NC(=O)[C@H](Cc1ccc(O)cc1)NC(=O)[C@@H](NC(=O)[C@H](CO)NC(=O)[C@H](Cc1ccc(O)cc1)NC(=O)[C@H](CC(=O)O)NC(=O)[C@H](CO)NC(=O)[C@@H](NC(=O)[C@H](Cc1ccccc1)NC(=O)[C@@H](NC(=O)CNC(=O)[C@H](CCC(=O)O)NC(=O)CSCC(=O)NCCN1C(=O)CSC1=O)[C@@H](C)O)[C@@H](C)O)[C@@H](C)CC)C(C)C)C(N)=O)C(=O)O [Compound 70] | 86% | 1 to 10 nM | 86% | 1 to 10 nM | 102% | 0.1 to 1 nM | 102% | 0.1 to 1 nM |  |  |  | 
3 | CCCCCCCCCCCCCCCC(=O)N[C@@H](CCC(=O)NCCCC[C@H](NC(=O)[C@H](CO)NC(=O)[C@@H]1CCCN1C(=O)[C@@H]1CCCN1C(=O)[C@@H]1CCCN1C(=O)[C@H](C)NC(=O)CNC(=O)[C@H](CO)NC(=O)[C@H](CO)NC(=O)[C@@H]1CCCN1C(=O)CNC(=O)[C@H](CCCNC(=N)N)NC(=O)[C@H](CCC(N)=O)NC(=O)[C@H](C)NC(=O)[C@H](CC(C)C)NC(=O)[C@H](CC(C)C)NC(=O)[C@H](Cc1c[nH]c2ccccc12)NC(=O)[C@H](CC(N)=O)NC(=O)[C@@H](NC(=O)[C@H](Cc1ccccc1)NC(=O)[C@H](CC(=O)O)NC(=O)[C@H](CCC(N)=O)NC(=O)[C@H](CCC(N)=O)NC(=O)[C@H](CCCNC(=N)N)NC(=O)[C@@H](NC(=O)[C@H](CCCCN)NC(=O)[C@H](CC(=O)O)NC(=O)[C@H](CCSC)NC(=O)[C@H](C)NC(=O)[C@@H](NC(=O)[C@H](CO)NC(=O)[C@H](Cc1ccc(O)cc1)NC(=O)[C@H](CC(=O)O)NC(=O)[C@H](CO)NC(=O)[C@@H](NC(=O)[C@H](Cc1ccccc1)NC(=O)[C@@H](NC(=O)CNC(=O)[C@H](CCC(=O)O)NC(=O)CSCC(=O)NCCN1C(=O)CSC1=O)[C@@H](C)O)[C@@H](C)CC)[C@@H](C)CC)[C@@H](C)CC)C(C)C)C(N)=O)C(=O)O [Compound 76] (X2-EGTFISDYSIAMDKIRQQDFVNWLLAQRGPSSGAPPPSK([γGlu-Palmitoyl])-NH2) | 89% | 0.1 to 1 nM | 89% | 0.1 to 1 nM | 95% | 1 to 10 nM | 95% | 1 to 10 nM |  |  |  | 
4 | CCCCCCCCCCCCCCCC(=O)N[C@@H](CCC(=O)NCCCC[C@H](NC(=O)[C@H](CO)NC(=O)[C@@H]1CCCN1C(=O)[C@@H]1CCCN1C(=O)[C@@H]1CCCN1C(=O)[C@H](C)NC(=O)CNC(=O)[C@H](CO)NC(=O)[C@H](CO)NC(=O)[C@@H]1CCCN1C(=O)CNC(=O)CNC(=O)[C@H](C)NC(=O)[C@H](CC(C)C)NC(=O)[C@H](CC(C)C)NC(=O)[C@H](Cc1c[nH]c2ccccc12)NC(=O)[C@H](CC(N)=O)NC(=O)[C@@H](NC(=O)[C@H](Cc1ccccc1)NC(=O)[C@H](CCC(=O)O)NC(=O)C(C)(C)NC(=O)[C@H](C)NC(=O)[C@H](C)NC(=O)[C@H](CCC(N)=O)NC(=O)[C@H](CCCCN)NC(=O)[C@H](CC(=O)O)NC(=O)[C@H](CC(C)C)NC(=O)[C@H](Cc1ccc(O)cc1)NC(=O)[C@@H](NC(=O)[C@H](CO)NC(=O)[C@H](Cc1ccc(O)cc1)NC(=O)[C@H](CC(=O)O)NC(=O)[C@H](CO)NC(=O)[C@@H](NC(=O)[C@H](Cc1ccccc1)NC(=O)[C@@H](NC(=O)CNC(=O)[C@H](CCC(=O)O)NC(=O)CSCC(=O)NCCN1C(=O)C[C@H](O)C1=O)[C@@H](C)O)[C@@H](C)O)[C@@H](C)CC)C(C)C)C(N)=O)C(=O)O [Compound 78] | 58% |  | 58% |  | 94% |  | 94% |  | 1 to 10 nM | 1 to 10 nM | 0.1 to 1 nM | 0.1 to 1 nM
5 | CCCCCCCCCCCCCCCC(=O)N[C@@H](CCC(=O)NCCCC[C@H](NC(=O)[C@H](CO)NC(=O)[C@@H]1CCCN1C(=O)[C@@H]1CCCN1C(=O)[C@@H]1CCCN1C(=O)[C@H](C)NC(=O)CNC(=O)[C@H](CO)NC(=O)[C@H](CO)NC(=O)[C@@H]1CCCN1C(=O)CNC(=O)CNC(=O)[C@H](C)NC(=O)[C@H](CC(C)C)NC(=O)[C@H](CC(C)C)NC(=O)[C@H](Cc1c[nH]c2ccccc12)NC(=O)[C@H](CC(N)=O)NC(=O)[C@@H](NC(=O)[C@H](Cc1ccccc1)NC(=O)[C@H](CCC(=O)O)NC(=O)C(C)(C)NC(=O)[C@@H](NC(=O)[C@H](C)NC(=O)[C@H](CCC(N)=O)NC(=O)[C@H](CCCCN)NC(=O)[C@H](CC(=O)O)NC(=O)[C@H](CC(C)C)NC(=O)[C@H](Cc1ccc(O)cc1)NC(=O)[C@@H](NC(=O)[C@H](CO)NC(=O)[C@H](Cc1ccc(O)cc1)NC(=O)[C@H](CC(=O)O)NC(=O)[C@H](CO)NC(=O)[C@@H](NC(=O)[C@H](Cc1ccccc1)NC(=O)[C@@H](NC(=O)CNC(=O)[C@H](CCC(=O)O)NC(=O)CSCC(=O)NCCN1C(=O)CSC1=O)[C@@H](C)O)[C@@H](C)O)[C@@H](C)CC)C(C)C)C(C)C)C(N)=O)C(=O)O [Compound 80] (X2-EGTFTSDYSIYLDKQAV[Aib]EFVNWLLAGGPSSGAPPPSK([γGlu-Palmitoyl])-NH2) | 73% | 1 to 10 nM | 73% | 1 to 10 nM | 92% | 0.1 to 1 nM | 92% | 0.1 to 1 nM |  |  |  | 
6 | CCCCCCCCCCCCCCCC(=O)N[C@@H](CCC(=O)NCCCC[C@H](NC(=O)[C@H](CO)NC(=O)[C@@H]1CCCN1C(=O)[C@@H]1CCCN1C(=O)[C@@H]1CCCN1C(=O)[C@H](C)NC(=O)CNC(=O)[C@H](CO)NC(=O)[C@H](CO)NC(=O)[C@@H]1CCCN1C(=O)CNC(=O)CNC(=O)[C@H](C)NC(=O)[C@H](CC(C)C)NC(=O)[C@H](CC(C)C)NC(=O)[C@H](Cc1c[nH]c2ccccc12)NC(=O)[C@H](CC(N)=O)NC(=O)[C@@H](NC(=O)[C@H](Cc1ccccc1)NC(=O)[C@H](CCC(=O)O)NC(=O)C(C)(C)NC(=O)[C@H](C)NC(=O)[C@H](C)NC(=O)[C@H](CCC(N)=O)NC(=O)[C@H](CCCCN)NC(=O)[C@H](CC(=O)O)NC(=O)[C@H](CC(C)C)NC(=O)[C@H](Cc1ccc(O)cc1)NC(=O)[C@@H](NC(=O)[C@H](CO)NC(=O)[C@H](Cc1ccc(O)cc1)NC(=O)[C@H](CC(=O)O)NC(=O)[C@H](CO)NC(=O)[C@@H](NC(=O)[C@H](Cc1ccccc1)NC(=O)[C@@H](NC(=O)CNC(=O)[C@H](CCC(=O)O)NC(=O)CSCC(=O)NCCN1C(=O)CC(C)(C)CC1=O)[C@@H](C)O)[C@@H](C)O)[C@@H](C)CC)C(C)C)C(N)=O)C(=O)O [Compound 82] | 82% |  | 82% |  | 95% |  | 95% |  | 1 to 10 nM | 1 to 10 nM | 1 to 10 nM | 1 to 10 nM

From patent US20260176320A1, “MODULATORS OF G-PROTEIN COUPLED RECEPTORS” (priority 2018, published 2026)
